For one series, the system named is FRT cells. Put plainly: Cell toxicity by the dihydrorhodamine method. The following applies: after 24 hours, dihydrorhodamine assay.
Another series addresses T1, urea transporter (UT-B) (Homo sapiens, UniProt Q13336).
T1 sequence (Q13336 1-389): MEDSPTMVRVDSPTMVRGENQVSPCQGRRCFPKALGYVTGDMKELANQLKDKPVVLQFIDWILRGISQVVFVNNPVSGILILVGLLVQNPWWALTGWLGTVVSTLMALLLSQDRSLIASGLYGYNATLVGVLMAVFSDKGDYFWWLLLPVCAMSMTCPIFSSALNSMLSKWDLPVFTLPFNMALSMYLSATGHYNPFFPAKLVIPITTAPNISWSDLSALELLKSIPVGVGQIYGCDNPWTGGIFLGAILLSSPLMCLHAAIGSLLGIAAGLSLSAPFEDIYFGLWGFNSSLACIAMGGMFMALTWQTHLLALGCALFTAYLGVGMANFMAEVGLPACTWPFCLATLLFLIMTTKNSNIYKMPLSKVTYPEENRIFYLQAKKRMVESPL
Put plainly: Additional specificity study: urea transporter. Particulars: 5 μM.

In a further series the target is T2, Na+/H+ exchanger (NEE3) (Homo sapiens, UniProt P48764).
T2 sequence (P48764 26-834): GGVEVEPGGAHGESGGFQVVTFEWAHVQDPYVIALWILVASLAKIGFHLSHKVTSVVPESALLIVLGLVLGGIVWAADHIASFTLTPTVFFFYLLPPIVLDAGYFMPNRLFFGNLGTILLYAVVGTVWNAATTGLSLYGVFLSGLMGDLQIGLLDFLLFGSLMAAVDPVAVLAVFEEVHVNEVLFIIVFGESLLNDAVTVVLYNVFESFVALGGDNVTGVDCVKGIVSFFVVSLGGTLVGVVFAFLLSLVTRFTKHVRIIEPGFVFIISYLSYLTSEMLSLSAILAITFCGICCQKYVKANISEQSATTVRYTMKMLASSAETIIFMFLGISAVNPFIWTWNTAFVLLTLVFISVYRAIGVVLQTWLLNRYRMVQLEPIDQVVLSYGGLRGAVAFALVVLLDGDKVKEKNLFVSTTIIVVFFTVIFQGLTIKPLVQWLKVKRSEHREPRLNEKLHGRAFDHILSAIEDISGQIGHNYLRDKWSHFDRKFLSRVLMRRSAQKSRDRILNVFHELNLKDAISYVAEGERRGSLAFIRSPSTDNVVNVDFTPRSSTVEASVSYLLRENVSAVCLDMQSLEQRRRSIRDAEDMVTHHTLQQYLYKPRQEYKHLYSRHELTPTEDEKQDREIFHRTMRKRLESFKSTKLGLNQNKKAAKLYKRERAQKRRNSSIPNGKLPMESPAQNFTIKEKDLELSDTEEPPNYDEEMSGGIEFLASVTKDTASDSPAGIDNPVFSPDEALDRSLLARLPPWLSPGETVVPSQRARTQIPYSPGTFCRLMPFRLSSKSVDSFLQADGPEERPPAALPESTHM
In words: Additional specificity study: Na+/H+ exchanger. The following applies: 5 μM.

Another series has as its target MDR-1 (Homo sapiens, UniProt P08183).
For a further series, the system named is phosphatase activity. Put plainly: Phosphatase assay. Particulars: 5 μM.
Another series relates to cellular cAMP production. In words: Intracellular cAMP assay in FRT cells. For orientation: cAMP levels reflect the balance of adenylyl cyclase and phosphodiesterase activity.
Another series has as its target T3, CFTR Cl− channel (Rattus norvegicus, UniProt P34158).
T3 construct: from tissue; host or cells: rat colon mucosa strips
In words: Short-circuit current in isolated rat colonic mucosa. Particulars: amiloride, forskolin 20 μM.

Series [1] deals with Calcium-sensitive Cl− channels. Put plainly: UTP-stimulated Ca2+-dependent Cl− secretion, short-circuit current in human bronchial epithelial cells. The class given is cell-based.
Series [2] addresses T4, Cl−/HCO3− exchanger (AEI) (Homo sapiens, UniProt P02730).
T4 sequence (P02730 1-911): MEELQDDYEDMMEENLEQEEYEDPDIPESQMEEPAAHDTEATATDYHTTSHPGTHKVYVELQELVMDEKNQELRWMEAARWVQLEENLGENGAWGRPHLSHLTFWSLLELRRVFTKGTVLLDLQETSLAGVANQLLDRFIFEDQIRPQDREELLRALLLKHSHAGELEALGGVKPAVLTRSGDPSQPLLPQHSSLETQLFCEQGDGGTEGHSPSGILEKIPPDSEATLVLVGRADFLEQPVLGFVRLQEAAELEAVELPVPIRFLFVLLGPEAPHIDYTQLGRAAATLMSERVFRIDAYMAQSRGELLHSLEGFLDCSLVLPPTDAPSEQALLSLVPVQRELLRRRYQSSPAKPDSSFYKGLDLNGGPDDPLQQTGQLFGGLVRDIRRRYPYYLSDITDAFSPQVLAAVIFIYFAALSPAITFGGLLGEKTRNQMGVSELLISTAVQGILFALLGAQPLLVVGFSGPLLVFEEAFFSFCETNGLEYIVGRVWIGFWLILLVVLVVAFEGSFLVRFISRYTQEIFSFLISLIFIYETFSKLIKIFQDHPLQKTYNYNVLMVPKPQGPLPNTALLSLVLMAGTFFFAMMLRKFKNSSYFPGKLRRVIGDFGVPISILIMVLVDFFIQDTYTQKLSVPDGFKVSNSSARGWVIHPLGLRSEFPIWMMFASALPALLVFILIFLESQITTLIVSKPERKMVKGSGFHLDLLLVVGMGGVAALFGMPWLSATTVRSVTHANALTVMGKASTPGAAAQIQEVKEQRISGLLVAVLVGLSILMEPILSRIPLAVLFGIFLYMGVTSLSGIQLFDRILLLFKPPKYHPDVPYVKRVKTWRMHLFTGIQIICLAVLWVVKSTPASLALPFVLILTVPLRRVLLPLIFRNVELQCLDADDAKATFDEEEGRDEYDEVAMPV
In words: Additional specificity study: Cl−/HCO3− exchanger. The following applies: 5 μM.

For the next series, the target named is T5, water channel (AQP1) (Homo sapiens, UniProt P29972).
T5 sequence (P29972 1-269): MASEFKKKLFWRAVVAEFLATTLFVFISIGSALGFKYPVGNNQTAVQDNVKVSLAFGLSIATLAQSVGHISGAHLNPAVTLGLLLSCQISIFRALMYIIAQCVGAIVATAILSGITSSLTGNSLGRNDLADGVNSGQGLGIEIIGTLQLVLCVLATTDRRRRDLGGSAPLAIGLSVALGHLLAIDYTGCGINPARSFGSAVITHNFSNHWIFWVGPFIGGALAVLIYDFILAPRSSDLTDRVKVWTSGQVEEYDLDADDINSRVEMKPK
Put plainly: Additional specificity study: water channel. The following applies: 5 μM.

The test system of series [3] is Volume-sensitive Cl− channels. Put plainly: Volume-activated Cl− current, whole-cell patch clamp on FRT cells. It counts as cell-based, rat. Particulars: 5 μM; 250 mosM/kg hypotonic solution. From the text:
FIG. 4B is a graphical representation of volume-activated Cl^− current (hypotonic 250 mosM/kg H2O) measured in whole-cell patch clamp experiments on FRT cells.
A general note: Patch clamp records ionic current or voltage across a cell membrane.

The next series is described as follows: Animal toxicity in mice. The class given is in vivo.
For series [4], the system named is cholera toxin-induced intestinal fluid secretion. Set-up: species or system mice. Particulars: mouse, in vivo, ip.
A further series addresses T6, human wildtype CFTR (Homo sapiens, UniProt P13569).
T6 construct: expressed in transfected cells; host or cells: Fischer rat thyroid (FRT) cells, stably transfected, co-expressing YFP-H148Q
In words: YFP fluorescence assay of CFTR-mediated I− transport in FRT cells. The following applies: relative to CFTRinh-172 = 1.0. It counts as cell-based.

Where [5] appears, read: mice, intraperitoneal 1000 μg/kg daily for 7 days.

“Also recorded” adds a separate entry of the source. Like-named read-outs stand apart in the source and are kept apart here. Where only a bound is given, the exact number is not on record here.

T3 sequence (P34158 whole entry): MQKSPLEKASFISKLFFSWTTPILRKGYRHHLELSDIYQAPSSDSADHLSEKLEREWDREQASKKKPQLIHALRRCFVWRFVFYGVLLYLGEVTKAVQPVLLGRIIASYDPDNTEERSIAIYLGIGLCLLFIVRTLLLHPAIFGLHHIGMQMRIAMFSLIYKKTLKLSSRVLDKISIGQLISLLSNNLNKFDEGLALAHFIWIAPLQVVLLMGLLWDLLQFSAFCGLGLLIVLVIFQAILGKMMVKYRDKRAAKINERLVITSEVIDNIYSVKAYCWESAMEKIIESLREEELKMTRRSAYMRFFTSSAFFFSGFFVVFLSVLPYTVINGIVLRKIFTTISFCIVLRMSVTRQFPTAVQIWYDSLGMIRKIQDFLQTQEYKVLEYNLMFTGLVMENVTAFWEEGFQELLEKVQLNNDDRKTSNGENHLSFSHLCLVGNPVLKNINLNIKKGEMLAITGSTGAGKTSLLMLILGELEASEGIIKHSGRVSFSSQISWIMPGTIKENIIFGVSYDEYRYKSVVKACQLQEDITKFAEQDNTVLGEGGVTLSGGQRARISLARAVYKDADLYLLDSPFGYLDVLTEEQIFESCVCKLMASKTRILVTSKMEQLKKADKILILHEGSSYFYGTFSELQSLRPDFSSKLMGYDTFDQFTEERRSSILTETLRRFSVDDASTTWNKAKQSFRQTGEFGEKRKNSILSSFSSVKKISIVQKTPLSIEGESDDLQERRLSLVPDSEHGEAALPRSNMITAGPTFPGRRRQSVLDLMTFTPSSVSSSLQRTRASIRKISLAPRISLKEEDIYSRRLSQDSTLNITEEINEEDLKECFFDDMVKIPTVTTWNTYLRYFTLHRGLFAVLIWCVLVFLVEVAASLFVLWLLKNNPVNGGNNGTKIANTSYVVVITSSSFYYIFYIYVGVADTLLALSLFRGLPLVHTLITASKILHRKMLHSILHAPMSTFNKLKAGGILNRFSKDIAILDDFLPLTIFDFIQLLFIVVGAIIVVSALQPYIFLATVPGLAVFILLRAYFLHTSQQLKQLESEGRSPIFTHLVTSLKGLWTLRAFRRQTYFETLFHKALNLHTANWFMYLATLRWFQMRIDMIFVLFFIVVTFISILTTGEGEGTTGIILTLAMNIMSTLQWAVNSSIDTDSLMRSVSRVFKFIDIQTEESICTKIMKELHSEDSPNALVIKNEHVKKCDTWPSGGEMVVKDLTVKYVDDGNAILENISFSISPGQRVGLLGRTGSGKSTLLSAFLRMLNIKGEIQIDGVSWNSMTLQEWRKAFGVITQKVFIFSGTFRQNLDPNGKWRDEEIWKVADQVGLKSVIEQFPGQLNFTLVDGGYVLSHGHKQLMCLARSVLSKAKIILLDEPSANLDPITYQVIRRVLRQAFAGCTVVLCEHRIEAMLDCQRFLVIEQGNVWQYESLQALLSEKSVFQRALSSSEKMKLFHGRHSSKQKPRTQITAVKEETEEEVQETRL
MDR-1, sequence (P08183 whole entry): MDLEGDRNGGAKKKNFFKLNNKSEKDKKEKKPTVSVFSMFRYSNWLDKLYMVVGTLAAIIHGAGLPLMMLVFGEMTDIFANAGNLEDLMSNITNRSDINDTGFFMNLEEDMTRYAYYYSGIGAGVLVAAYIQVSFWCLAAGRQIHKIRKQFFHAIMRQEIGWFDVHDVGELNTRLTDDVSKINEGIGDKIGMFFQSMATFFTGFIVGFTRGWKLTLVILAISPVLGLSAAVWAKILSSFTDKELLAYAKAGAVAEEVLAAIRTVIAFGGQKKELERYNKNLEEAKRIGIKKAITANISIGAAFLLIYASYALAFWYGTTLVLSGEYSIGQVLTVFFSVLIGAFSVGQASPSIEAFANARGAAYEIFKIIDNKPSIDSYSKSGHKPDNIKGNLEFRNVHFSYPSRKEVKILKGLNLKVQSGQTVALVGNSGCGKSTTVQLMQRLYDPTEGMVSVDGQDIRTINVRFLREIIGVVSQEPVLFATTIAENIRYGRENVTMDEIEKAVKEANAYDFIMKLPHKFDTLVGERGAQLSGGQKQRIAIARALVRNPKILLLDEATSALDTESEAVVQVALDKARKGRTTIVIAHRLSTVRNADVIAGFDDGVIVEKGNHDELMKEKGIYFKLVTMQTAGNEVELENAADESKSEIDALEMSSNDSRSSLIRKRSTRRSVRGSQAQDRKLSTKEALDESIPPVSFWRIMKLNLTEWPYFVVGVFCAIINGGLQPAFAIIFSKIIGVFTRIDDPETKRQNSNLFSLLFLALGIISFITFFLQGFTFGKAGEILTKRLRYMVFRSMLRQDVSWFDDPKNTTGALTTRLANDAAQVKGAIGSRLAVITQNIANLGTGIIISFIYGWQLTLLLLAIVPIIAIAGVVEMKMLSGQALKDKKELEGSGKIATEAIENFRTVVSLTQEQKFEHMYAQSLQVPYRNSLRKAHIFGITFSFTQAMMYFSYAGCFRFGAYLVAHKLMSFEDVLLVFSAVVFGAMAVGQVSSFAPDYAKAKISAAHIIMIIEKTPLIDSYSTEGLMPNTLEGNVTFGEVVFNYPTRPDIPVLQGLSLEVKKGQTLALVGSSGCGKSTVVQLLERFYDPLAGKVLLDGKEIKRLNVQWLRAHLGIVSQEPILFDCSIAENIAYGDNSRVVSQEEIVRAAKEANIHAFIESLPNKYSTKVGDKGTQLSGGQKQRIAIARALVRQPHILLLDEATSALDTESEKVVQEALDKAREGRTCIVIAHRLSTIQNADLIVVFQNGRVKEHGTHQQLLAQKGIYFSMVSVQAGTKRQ

Take “3-[(3-trifluoromethyl)phenyl]-5-[(4-carboxyphenyl)methylene]-2-thioxo-4-thiazolidinone [CFTRinh-172]”: the “concentrations non-toxic to FRT cells” value in the series on FRT cells is given as “up to 100 μM”. Further, the “block of urea transporter (UT-B)” value on urea transporter (UT-B) is recorded as “did not block”. Moreover, at Na+/H+ exchanger (NEE3), the “block of Na+/H+ exchanger (NEE3)” value is recorded as “did not block”. For the same molecule, the vincristine accumulation entry on MDR-1 (5 μM) is listed as “did not affect vincristine accumulation”. For the same molecule, the “effect on phosphatase activity” value with phosphatase activity is reported as “did not affect”. The “effect on cellular cAMP production” value in the series with cellular cAMP production (5 μM) is “did not affect”. Further, in the series on cellular cAMP production (30 min after 20 μM forskolin, + inhibitor (n=3)), the cAMP content amounted to 1140±50 fmol/well. Also, the “reduction of short-circuit current” value on CFTR Cl− channel (5 μM in mucosal solution alone) was above 80%. Moreover, on CFTR Cl− channel, the “efficacy of short-circuit current inhibition, mucosal vs. serosal addition” value is “greater efficacy”. Further, the “effect on Ca2+ activated Cl− secretion” value in series [1] (5 μM, UTP 100 μM apical) is on record as “did not inhibit”. Besides, the “maximal UTP-dependent short-circuit current” value in series [1] (in the presence of 5 μM inhibitor (SE, n=4)) turned out to be 10.0±0.2 μA/cm^2. Besides, the “block of Cl−/HCO3− exchanger (AEI)” value in series [2] is “did not block”. For the same molecule, the “block of water channel (AQP1)” value at water channel (AQP1) is reported as “did not block”. Moreover, the “effect on volume-activated Cl− currents” value in series [3] is given as “did not block”. In addition, in “Animal toxicity in mice” (setting [5]), the “food and water intake” value is listed as “not diminished”; the overt toxicity entry is “did not cause overt toxicity”; the “serum electrolyte concentrations, glucose, liver function indices, serum creatinine, amylase and hematocrit” value is “not changed”. Further, the overt toxicity entry in the series “Animal toxicity in mice” (single systemic dose 10 mg/kg) is recorded as “did not cause overt toxicity”. In addition, the “fluid accumulation in cholera toxin-treated ileal loops” value in series [4] is “effectively prevented fluid accumulation; also recorded: significantly reduced fluid secretion to that in saline control loops”.
As for `O=C(O)c1ccccc1C=C1SC(=S)N(c2ccccc2C(F)(F)F)C1=O` [2, 3, 3-[(a-trifluoromethyl)phenyl]-5-[(b-carboxyphenyl)methylene]-2-thioxo-4-thiazolidinone], the “relative potency (CFTR inhibitory activity)” value on human wildtype CFTR is 0.70.
Still for that read-out and setting: to `O=C(O)c1ccccc1C=C1SC(=S)N(c2ccccc2C(F)(F)F)C1=O` [2, 4, 3-[(a-trifluoromethyl)phenyl]-5-[(b-carboxyphenyl)methylene]-2-thioxo-4-thiazolidinone] belongs 0.66.
In the case of `O=C(O)c1ccccc1C=C1SC(=S)N(c2ccccc2C(F)(F)F)C1=O` [3, 2, 3-[(a-trifluoromethyl)phenyl]-5-[(b-carboxyphenyl)methylene]-2-thioxo-4-thiazolidinone], at human wildtype CFTR, the “relative potency (CFTR inhibitory activity)” value is 0.74.
On the same count and under the same terms, the value for `O=C(O)c1ccccc1C=C1SC(=S)N(c2ccccc2C(F)(F)F)C1=O` [3, 3, 3-[(a-trifluoromethyl)phenyl]-5-[(b-carboxyphenyl)methylene]-2-thioxo-4-thiazolidinone] was 0.90; that for `O=C(O)c1ccccc1C=C1SC(=S)N(c2ccccc2C(F)(F)F)C1=O` [4, 2, 3-[(a-trifluoromethyl)phenyl]-5-[(b-carboxyphenyl)methylene]-2-thioxo-4-thiazolidinone] was 0.67.
Same read-out and setting: the value for `O=C(O)c1ccccc1C=C1SC(=S)N(c2ccccc2C(F)(F)F)C1=O` [4, 3, 3-[(a-trifluoromethyl)phenyl]-5-[(b-carboxyphenyl)methylene]-2-thioxo-4-thiazolidinone] was 0.64.
On the same count and under the same terms, to `O=C(O)c1ccccc1C=C1SC(=S)N(c2ccccc2C(F)(F)F)C1=O` [4, 4, 3-[(a-trifluoromethyl)phenyl]-5-[(b-carboxyphenyl)methylene]-2-thioxo-4-thiazolidinone] belongs 0.56; to `O=C(O)Oc1ccc(/C=C2\SC(=O)N(c3cccc(C(F)(F)F)c3)C2=S)cc1` [CFTRinh-029, 3-[(3-trifluoromethyl)phenyl]-5-[(4-oxycarboxyphenyl)methylene]-2-thioxo-4-thiazolidinone], 0.3; to `O=C1S/C(=C\c2ccc(O)c(O)c2)C(=S)N1c1cccc(C(F)(F)F)c1` [CFTRinh-185, 3-[(3-trifluoromethyl)phenyl]-5-[(3,4-dihydroxyphenyl)methylene]-2-thioxo-4-thiazolidinone], 0.2.
Turning to `O=C(O)c1ccccc1C=C1SC(=S)N(c2ccccc2C(F)(F)F)C1=O` [a=2, b=2, 3-[(a-trifluoromethyl)phenyl]-5-[(b-carboxyphenyl)methylene]-2-thioxo-4-thiazolidinone], the “relative potency (CFTR inhibitory activity)” value at human wildtype CFTR is given as 0.69.
Regarding `COc1ccc(CCN(C)CCCC(C#N)(c2ccc(OC)c(OC)c2)C(C)C)cc1OC` (stereo not drawn) [verapamil, reference compound], the vincristine accumulation result on MDR-1 (100 μM) is recorded as “strongly increased”.
